What all share (type): cell-based, Escherichia coli
The subject of assay [1] is E. coli K-12 host strain LBB427 (untransformed and transformed with plasmid pXT1457). Put plainly: Growth of shake-flask cultures after glyphosate addition. The settings on record: glyphosate 3.38 grams per liter (20 millimolar) added 2.5 hours after inoculation; Vogel-Bonner minimal culture medium; 37 degrees Celsius. How it is done:
(§1) To confirm that the new plasmid was functioning as expected, the wild-type E. coli K-12 host strain LBB427 was transformed with the plasmid pXT1457. Techniques for transforming bacteria, including strains of E. coli, are known in the art (Sambrook and Russell, 2001; Ausubel et al., 2005). The shikimic acid and phenylalanine production levels of this strain were compared to that of the untransformed host strain LBB427. […] At 24 hours after inoculation, the cells were pelleted by centrifugation, and the culture supernatants were analyzed by a high-pressure liquid chromatography (HPLC) assay for shikimic acid and phenylalanine content. […]
The untransformed host strain LBB427 and the host strain LBB427 transformed with the plasmid pXT1457 were grown in 50 milliliters of the Vogel-Bonner minimal culture medium described in Example 1. […] At 24 hours after inoculation (i.e., 21.5 hours after N-(phosphonomethyl)glycine addition), the cells were pelleted by centrifugation, and the culture supernatants were analyzed for shikimic acid content using the HPLC assay described in Example 1. The culture supernatants of the host strain LBB427 transformed with the plasmid pXT1457 were also analyzed for phenylalanine content.

Assay [2] has as its system untransformed host strain LBB427. Briefly: HPLC assay of culture supernatant after glyphosate treatment, untransformed strain. How it is done:
as §1
[…] At 24 hours after inoculation (i.e., 21.5 hours after N-(phosphonomethyl)glycine addition), the cells were pelleted by centrifugation, and the culture supernatants were analyzed for shikimic acid content using the HPLC assay described in Example 1. The culture supernatants of the host strain LBB427 transformed with the plasmid pXT1457 were also analyzed for phenylalanine content. […]

Assay [3] relates to host strain LBB427 transformed with the plasmid pXT1483. Put plainly: HPLC assay of culture supernatant after glyphosate treatment, pXT1483 strain.
For assay [4], the system named is host strain LBB427 transformed with the plasmid pXT1457. Put plainly: HPLC assay of culture supernatant after glyphosate treatment, pXT1457 strain. How it is done: To confirm that the new plasmid was functioning as expected, the wild-type E. coli K-12 host strain LBB427 was transformed with the plasmid pXT1457. Techniques for transforming bacteria, including strains of E. coli, are known in the art (Sambrook and Russell, 2001; Ausubel et al., 2005). The shikimic acid and phenylalanine production levels of this strain were compared to that of the untransformed host strain LBB427. The strains were cultured in 50 milliliters of Vogel-Bonner minimal culture medium (Vogel and Bonner, 1956), consisting of magnesium sulfate heptahydrate (MgSO4-7H2O) at 298 milligrams per liter, anhydrous dibasic potassium phosphate (K2HPO4) at 14.93 grams per liter, sodium ammonium phosphate tetrahydrate (NaNH4HPO4-4H2O) at 5.22 grams per liter, anhydrous citric acid (the free acid form) at 2.73 grams per liter, and glucose at 2.00 grams per liter. The pH of the culture medium was 7.0. For the strain LBB427 transformed with the plasmid pXT1457, ampicillin was included in the culture medium at 100 milligrams per liter. The cultures were grown in flasks, on an incubator shaker operating at 300 rpm and 37 degrees Celsius. At 24 hours after inoculation, the cells were pelleted by centrifugation, and the culture supernatants were analyzed by a high-pressure liquid chromatography (HPLC) assay for shikimic acid and phenylalanine content. To the samples to be assayed, phosphoric acid was added to a final concentration of 6 millimolar. […]
The untransformed host strain LBB427 and the host strain LBB427 transformed with the plasmid pXT1457 were grown in 50 milliliters of the Vogel-Bonner minimal culture medium described in Example 1. […] At 24 hours after inoculation (i.e., 21.5 hours after N-(phosphonomethyl)glycine addition), the cells were pelleted by centrifugation, and the culture supernatants were analyzed for shikimic acid content using the HPLC assay described in Example 1. The culture supernatants of the host strain LBB427 transformed with the plasmid pXT1457 were also analyzed for phenylalanine content. […]

Assay [5] concerns host strain LBB427 transformed with the plasmid pXT1483. Briefly: High-density phosphate-limited fermentation culture with glyphosate addition. As to conditions: optical density of 40; glyphosate 20 millimolar; twelve hours after addition; sample at pH 1.0, 60 degrees Celsius, 15 minutes. The protocol: The host strain LBB427 transformed with the plasmid pXT1483 can be grown to high optical densities in a phosphate-limited fermentation culture. Fermentations are conducted in a chemically-defined minimal medium containing 5.9 grams of anhydrous ammonium sulfate ((NH4)2SO4), 1.8 grams of anhydrous dibasic potassium phosphate (K2HPO4), 1.0 grams of monobasic sodium phosphate monohydrate (NaH2PO4—H2O), 550 milligrams of magnesium sulfate heptahydrate (MgSO4-7H2O), 27 milligrams of ferric chloride hexahydrate (FeCl3-6H2O), 0.5 milligrams of zinc sulfate heptahydrate (ZnSO4-7H2O), 0.9 milligrams of cobalt chloride hexahydrate (CoCl2-6H2O), 0.9 milligrams of sodium molybdate dihydrate (Na2MoO4-2H2O), 1.1 milligrams of cupric sulfate pentahydrate (CuSO4-5H2O), 0.3 milligrams of boric acid (H3BO3), and 0.7 milligrams of manganese sulfate monohydrate (MnSO4—H2O) per liter of water. The fermenter is maintained at 37 degrees Celsius. The pH is maintained at 7.0 by the controlled addition of concentrated (about 29%) ammonium hydroxide (NH4OH). […]
Twelve hours after N-(phosphonomethyl)glycine addition, samples of the fermentation cultures are taken for analysis of shikimic acid levels. […] The cells are pelleted by centrifugation, and the culture supernatants are analyzed for shikimic acid content using the HPLC assay described in Example 1.

The mark [6] stands for this setting: glyphosate 20 millimolar and phosphate-limitation (PF culture medium), 24 hours after inoculation.
Setting [7] is: glyphosate 20 millimolar, Vogel-Bonner minimal culture medium, 24 hours after inoculation (21.5 hours after addition).

Turning to `O=C(O)CNCP(=O)(O)O` [glyphosate, N-(phosphonomethyl)-glycine], the “Growth of the cultures” value in assay [1] is given as “almost completely inhibited”. The “shikimic acid in the culture supernatant” value in assay [2] (setting [6]) is on record as “about 200 milligrams of shikimic acid per OD unit per liter”; in assay [2] (setting [7]), “did not produce detectable levels of shikimic acid”; in assay [3] (setting [6]), “about 400 milligrams of shikimic acid per OD unit per liter”; in assay [4] (setting [6]) it was “about 250 milligrams of shikimic acid per OD unit per liter”; in assay [4] (setting [7]), “did not produce detectable levels of shikimic acid”; in assay [5], “about 24 grams of shikimic acid per liter”. For the same compound, the “level of shikimic acid in the culture supernatant” value in assay [3] (glyphosate 20 millimolar and phosphate-limitation, culture sample with cells adjusted to pH 1.0, heated to 60 degrees Celsius for 15 minutes) is recorded as “about 600 milligrams per OD unit per liter”. Also, the “phenylalanine in the culture supernatant” value in assay [4] (glyphosate 20 millimolar, Vogel-Bonner minimal culture medium, 24 hours after inoculation, about 400 without glyphosate) is on record as “about 50 milligrams of phenylalanine per OD unit per liter”.
